Measurements reported in article PMC6961122 (Bioorganic & Medicinal Chemistry, 2020).
Read-outs that look alike come from different tables or passages of the source.

Legend:
[1] = system: G317 patient-derived glioma cells; experiment: Growth inhibition (GI50, PrestoBlue, 5 d) in patient-derived glioma cells G317; format: cell-based, human; conditions: Homo sapiens, Glioma cell, 120 h, 5 d treatment, growth related to t=0 and DMSO, extrapolated from sigmoidal dose-response curve, read-out: GI50 (50% of growth inhibition) in G317
Description: Cells were treated with each inhibitor at concentrations ranging from 1 to 10,000 nM and PrestoBlue assay used at day 5 to detect viability. […] Data are means ± SEM of 3 independent experiments in triplicates.
(§1) U87 and T98 cells (ATCC) were cultured in DMEM (Gibco), supplemented with 10% (v/v) FBS (Gibco) and 2 mM L-Glutamine (Gibco) in a standard incubator (95% humidity, 5% CO2), and subcultured twice per week through trypsinization. G317 patient-derived glioma cells were established by the Glioma Cellular Genetics Resource (gcgr.org.uk) funded by Cancer Research UK. Ethics approval for use of patient-derived cells and early access confirmation to reagents from the Glioma Cellular Genetics Resource assured that all ethical issues according to UK legislation are fulfilled. G317 were cultured in DMEM/HAMS-F12 (Sigma) supplemented with 1.5 g L^−1 D-(+)-Glucose (Sigma), MEM non-essential aminoacids (Gibco), 0.015% (w/v) Penicillin-Streptomycin (Gibco), 0.012% (w/v) BSA (Gibco), 0.1 mM β-mercaptoethanol (Gibco), B27 (Gibco) and N2 supplements (Gibco). Cells were detached using accutase solution (Sigma) and subcultured once per week. Before adding to the cells, medium was supplemented with 10 ng ml^−1 mouse EGF (Preprotech), 10 ng ml^−1 human FGF (Preprotech), and 1 µg ml^−1 Laminin (Sigma).
(§2) 1 × 10^3 U87 cells/well, 5 × 10^2 T98 cells/well, 1 × 10^4 G317 cells/well, 1 × 10^4 HBVP cells/well and 1 × 10^4 bEnd3 cells/well were seeded in 96-well plates. After 48 h in culture, cells were treated with the inhibitors for 5 d. For GI50 determination, the viability of a triplicate sample of each experiment before treatment was measured with the PrestoBlue Reagent (Invitrogen), to establish a basepoint 0% of growth. […] ZIP Synergy scores were obtained with Synergy finder.[22] Viability percentage, EC50 and GI50 values were obtained using GraphPad Prism version 8.0.0 for Windows, GraphPad Software, San Diego, California USA, www.graphpad.com.
Table S2 . GI 50 values (nM) calculated for eCF309 , eCF311 , eCF312 , eCF324 , eCF325 and controls
Cells were treated with 10, 3, 1 µM,
300, 100, 30, 10, 3, 1, 0 nM of each inhibitor during 5 d. Cell growth (PrestoBlue) was related to t=0 (before
drug treatment), and GI 50 values were extrapolated from their corresponding sigmoidal dose-response curve

[2] = system: G317 spheroids; experiment: 3D spheroids assay, G317 spheroid area; format: cell-based, human; conditions: pre-formed spheroids; 0.01–10 µM for 8 days
Description: To test the compounds under conditions that better represent the tumour microenvironment, G317 cells were cultured in 3D and pre-formed spheroids treated with eCF309, eCF324 and the positive controls at a range of concentrations (0.01–10 µM) for 8 days.
Fig. 6 (a) Images of G317 spheroids on day 10. Spheroids were treated with 10 μM of each inhibitor during 8 days, images were acquired using ImageXpress. Scale bar = 100 μm. (b) Area of G317 patient derived spheroids at day 10. Spheroid area was calculated with a custom pipeline on CellProfiler. Data are mean ± SEM of 6 independent spheroids from two different cultures, ***P < 0.001, **P < 0.01 compared to DMSO controls (two-way ANOVA, Tukey post hoc test).
4 × 10^3 G317 cells were seeded in an ultra-low attachment round bottom 96-well plate, centrifuged at 1000g, 4 °C for 10 min and allowed to form spheroids for 2 days. Spheroids were then incubated with the inhibitors at 4 concentrations ranging from 10 nM to 10 µM. Spheroids were imaged at day 10 using ImageXpress (Molecular Devices LLC) and processed with ImageJ.[25] Spheroid area was calculated with a custom pipeline on CellProfiler.[26]

[3] = system: PI3Kα; parameters: method as in earlier work; conditions: recombinant kinase; previously obtained kinase profiling data; cited from earlier work
[4] = system: T98 cells; experiment: Cell viability assay (PrestoBlue, 5 d) in T98 glioma cells; format: cell-based; conditions: Homo sapiens, T98, 120 h; repeat for most potent hits; 7-point half-log dose-response 1 to 1,000 nM; PrestoBlue day 5
[5] = system: mTOR; parameters: method as in earlier work; conditions: recombinant kinase; previously obtained kinase profiling data; cited from earlier work
[6] = system: U87 cells; experiment: Cell viability assay (PrestoBlue, 5 d) in U87 glioma cells; format: cell-based; conditions: Homo sapiens, U-87 MG, 120 h; repeat for most potent hits; 7-point half-log dose-response 1 to 1,000 nM; PrestoBlue day 5
[7] = system: U87 cells; experiment: as above; format: cell-based; conditions: Homo sapiens, U-87 MG, 120 h, library screen, 5 d treatment, mean of three independent experiments in triplicates, read-out: EC50 U87 ± SEM
Description: (§3) The antiproliferative activity of a total of 100 compounds was tested against U87 and T98 glioma cell lines, using TMZ[3] and the Topoisomerase I inhibitor SN-38[18] as positive controls. Cells were treated with the library members for 5 d at three different concentrations (3, 30 and 300 µM) and cell viability determined using the PrestoBlue reagent. Half-maximal effective concentration (EC50) values were calculated from the corresponding dose-response curves and plotted in Fig. 2a as a heatmap to facilitate data analysis, with black meaning no activity and dark to light green to yellow transitions indicating decreasing EC50 values (=increasing potencies). Table 1 of the Suppl. Data contains the corresponding EC50 values ± SEM.
(§4) INK128 and SN-38 were used as positive controls. […] Structurally, these derivatives differed in the size of the alkyl group of the N1 position and the presence or absence of an oxygen atom in that moiety (see Suppl. Data).
as §1, §2

[8] = system: T98 cells; experiment: Cell viability assay (PrestoBlue, 5 d) in T98 glioma cells; format: cell-based; conditions: Homo sapiens, T98, 120 h, library screen, 5 d treatment, mean of three independent experiments in triplicates, read-out: EC50 T98 ± SEM
Description: as §3, §4, §1, §2

| GI50 [1] [nM] | EC50 [4] [nM] | EC50 [6] [nM] | EC50 [7] [nM] | EC50 [8] [nM] | Compound | reduction of G317 spheroid size (area at day 10) [2] | IC50 [3] [nM] | IC50 [5] [nM] |
| --- | --- | --- | --- | --- | --- | --- | --- | --- |
| 9.3 |  |  |  |  | CC(C)n1nc(-c2ccc3oc(N)nc3c2)c2c(N)ncnc21 [INK128, sapanisertib, reference compound] | most potent antiproliferative activities |  |  |
| 7.2 | 10 | 13 | 16 ± 3 | 11 ± 3 | Nc1nc2cc(-c3nn(CC4CCCC4)c4ncnc(N)c34)ccc2o1 [eCF324] | most potent antiproliferative activities | 3.5 | 1.8 |
